Common to all, as to type: in vivo
Assay [1] concerns writhes induced by intraperitoneal acetic acid. As to the kind of experiment: Analgesic activity, acetic acid-induced writhing test (peripheral pain model). The conditions noted are these: for Writhing inhibition, % of control in 1 mg/kg dose: 1 mg/kg intraperitoneally, 40 min before 0.75% acetic acid; for ED50, analgesic activity in writhing test / ED50: intraperitoneal, Prozorovsky method; for ED50: ip. As to the method:
Assessment of analgesic activity was performed in a model of peripheral pain based on chemical pain induced by intraperitoneal administration of acetic acid, leading to involuntary contractions of abdominal muscles, termed “writhes”, accompanied by hind leg extension and spine arching. The writhes were induced by 0.75% solution of acetic acid, which was administered intraperitoneally 40 min after intraperitoneal administration of test compounds in 0.001-5 mg/kg dose range. […] Analgesic activity was assessed by the ability of the compounds to reduce the number of writhes in test group compared to control group, and indicated as percentage using the following formula: AA=(Wc−Wt/Wc)×100%,
where AA—analgesic activity in %;
Wc—average number of writhes in control group;
Wt—average number of writhes in test group
Test compounds were studied in comparison with the reference drug sodium diclofenac in 10 mg/kg dose. ED50 was calculated using Prozorovsky method.
In general terms: Writhing tests count abdominal constrictions after an irritant is injected.

Assay [2] has as its system number of drinking actions despite electric shock. Description: Anxiolytic activity, conflict situation model (drinking versus electric shock). The conditions noted are these: for Anxiolytic activity assessed using conflict situation method (5 mg/kg): number of drinking actions despite electric shock, 30 min before test; for Anxiolytic properties: 5 mg/kg. As to the method: Anxiolytic activity was assessed in a model of conflict situation based on the conflict of two reflexes (drinking and defensive) when drinking water from a water fountain. Anxiolytic activity was assessed by the number of drinking actions despite electric shock.
(§1) Diazepam drug was used as the reference drug. All test compounds and the reference drug diazepam were administered in a suspension with Tween-80 in 5 mg/kg dose 30 min before the start of experiments.

For assay [3], the system named is general movement activity of animals. Description: General movement activity, open field test. The conditions noted are these: for General movement activity (5 mg/kg): open field 3 min, sum of rearings, transitions, explored holes, 30 min before test. As to the method:
General movement activity was assessed in an open field test. While the animals were in the open field (3 min), the number of rearings (vertical movement activity), transitions between squares (horizontal movement activity) and the number of explored holes (exploratory activity) were registered. The sum of these values is general movement activity.
as §1

A further assay has as its system food consumption by rats. Description: Action on appetite, Anorexia method (liquid food consumption). Conditions: for Amount of consumed liquid food during 30 min in ml / Food consumption, % of control: dose 0,1 mg/kg intraperitoneally; for Reduction in appetite and food consumption compared to control: Table 6 dose 0,1 mg/kg. As to the method: Studies of pharmacological activity of 3-arylamino-1,3-dihydro-2H-benzo[e][1,4]diazepin-2-ones, namely, their action of appetite, assessment of antihypoxic and antidepressant activity was performed in white male rats with body mass 150-180 g and male mice with body mass 18-22 g. The animals were kept on a standard laboratory diet and natural lighting. Animals of control group were given a water-Tween suspension. Test compounds were administered in a suspension with Tween-80 Reference drugs were the hormone leptin, in 0.0002 mg/kg dose, and a well-known antidepressant amitriptyline (solution for injections in 1 ml vials. Test compounds and the water-Tween suspension were administered in a dose of 0.2 ml/100 g of rat body mass.
The action of the compounds on rat appetite was studied using «norexia» method. For 2 weeks in an experimental equipment the rats were conditioned to consume liquid food. Then a water-Tween suspension of test articles was administered intraperitoneally to conditioned animals one day before the experiment. After 40 minutes the animals were allowed access to liquid food and the amount of consumed food (in ml) of every rat was registered every 30 minutes for 3 hours. The next day after 2 hours of deprivation the rats in control group were administered a water-Tween suspension intraperitoneally, while the test group was administered the test articles. After 40 minutes the animals were allowed access to liquid food and the amount of consumed food (in ml) of every rat was registered every 30 minutes for 3 hours. Then all food consumption values for each rat were summed and compared to control values. The control group has consumed on average 7 ml of liquid food per 30 minutes. The effect was calculated in percentage compared to control.

As usually defined, the ED50 is the midpoint of the dose-response relation. Read a low ED50 as an effect at a small dose.

On to `CCOC1N=C(c2ccccc2)c2cc(Cl)ccc2N(CC(=O)OC)C1=O` (centres unmarked) [Compound 21], for which, in assay [1] (compounds Ia), the “Writhing inhibition, % of control in 1 mg/kg dose” value (“Writhing inhibition, % of control” for short) worked out at 62%. Also, the “ED50, analgesic activity in writhing test” value in assay [1] is 0.29 ± 0.025 mg/kg.

As to `CCCOC1N=C(c2ccccc2)c2cc(Cl)ccc2N(CC(=O)OC)C1=O` (centres unmarked) [Compound 22], in assay [1] (compounds Ia), the “Writhing inhibition, % of control” value is 70%. In addition, in assay [1], the “ED50, analgesic activity in writhing test” value stood at 0.08 ± 0.02 mg/kg.

On to `CCCCOC1N=C(c2ccccc2)c2cc(Cl)ccc2N(CC(=O)OC)C1=O` (centres unmarked) [Compound 23], for which the “Writhing inhibition, % of control” value in assay [1] (compounds Ia) is 52%.

Turning to `COC(=O)CN1C(=O)C(Nc2ccccc2C(C)=O)N=C(c2ccccc2F)c2cc(Br)ccc21` (centres unmarked) [Compound 89], the “Writhing inhibition, % of control” value in assay [1] (compounds Ib) amounted to 66%. The “Anxiolytic activity assessed using conflict situation method (5 mg/kg)” value (from here on “Anxiolytic activity assessed”) in assay [2] is 3.4 ± 1.2. Moreover, the “Sedative properties (words, from general movement activity versus control)” value in assay [3] (5 mg/kg) was “don't have sedative properties”. The “General movement activity (5 mg/kg)” value in assay [3] came out at 40.0 ± 2.7.

Turning to `COC(=O)CN1C(=O)C(Nc2cccc(C(C)=O)c2)N=C(c2ccccc2F)c2cc(Br)ccc21` (centres unmarked) [Compound 90], in assay [1] (compounds Ib), the “Writhing inhibition, % of control” value was found to be 68%. Also, in assay [2], the “Anxiolytic activity assessed” value amounted to 8.2 ± 3.4. Further, the “General movement activity (5 mg/kg)” value in assay [3] is given as 24.5 ± 2.3.

Consider `COC(=O)CN1C(=O)C(Nc2ccc(C(C)=O)cc2)N=C(c2ccccc2F)c2cc(Br)ccc21` (centres unmarked) [Compound 91], for which, in assay [1] (compounds Ib), the “Writhing inhibition, % of control” value amounted to 62%. Also, the “Anxiolytic activity assessed” value in assay [2] was determined as 4.9 ± 2.2. Also, the “General movement activity (5 mg/kg)” value in assay [3] is reported as 25.2 ± 2.1.

Regarding `O=C1Nc2ccc(Cl)cc2C(c2ccccc2)=NC1Nc1ccccc1F` (centres unmarked) [Compound 152], in the assay on food consumption by rats, the “Amount of consumed liquid food during 30 min in ml” value (shortened to “Amount”) was 3,5 ± 1,3 ml and the “Food consumption, % of control” value was 47%.

For `O=C1Nc2ccc(Cl)cc2C(c2ccccc2)=NC1Nc1ccccc1Br` (centres unmarked) [Compound 161], in the assay with food consumption by rats, the “Amount” value is 5,5 ± 2,4 ml and the “Food consumption, % of control” value was found to be 74%.

For the molecule `O=C1Nc2ccc(Cl)cc2C(c2ccccc2)=NC1Nc1cccc(Br)c1` (centres unmarked) [Compound 162], in the assay on food consumption by rats, the “Amount” value is listed as 5,1 ± 2,2 ml and the “Food consumption, % of control” value came out at 69%.

On to `O=C1Nc2ccc(Cl)cc2C(c2ccccc2)=NC1Nc1ccc(Br)cc1` (centres unmarked) [Compound 163], for which, in the assay on food consumption by rats, the “Amount” value was 6,8 ± 2,7 ml and the “Food consumption, % of control” value was found to be 92%.

As for `COC(=O)CN1C(=O)C(Nc2ccccc2[N+](=O)[O-])N=C(c2ccccc2)c2cc(Cl)ccc21` (centres unmarked) [Compound 173], the “Writhing inhibition, % of control” value in assay [1] (compounds Ib) is given as 55%. For the same molecule, in assay [2], the “Anxiolytic properties” value is on record as “potent anxiolytic properties” and the “Anxiolytic activity assessed” value came to 120.5 ± 10.3. In assay [3], the “General movement activity (5 mg/kg)” value was found to be 15.0 ± 1.3.

For the molecule `COC(=O)CN1C(=O)C(Nc2cccc([N+](=O)[O-])c2)N=C(c2ccccc2)c2cc(Cl)ccc21` (centres unmarked) [Compound 174], in assay [1] (compounds Ib), the “Writhing inhibition, % of control” value amounted to 58%. Further, in assay [2], the “Anxiolytic activity assessed” value turned out to be 60.6 ± 7.0. In assay [3], the “General movement activity (5 mg/kg)” value is given as 18.0 ± 2.4.

`COC(=O)CN1C(=O)C(Nc2ccc([N+](=O)[O-])cc2)N=C(c2ccccc2)c2cc(Cl)ccc21` (centres unmarked) [Compound 175]: the “Writhing inhibition, % of control” value in assay [1] (compounds Ib) was found to be 55%. Further, the “Anxiolytic activity assessed” value in assay [2] is 48.7 ± 3.6. The “General movement activity (5 mg/kg)” value in assay [3] was found to be 20.0 ± 1.0.

As for `O=C1Nc2ccc(OC(F)(F)F)cc2C(c2ccccc2)=NC1Nc1cccc(Cl)c1` (centres unmarked) [Compound 195], in the assay on food consumption by rats, the “Amount” value is reported as 5,7 ± 2,2 ml and the “Food consumption, % of control” value is 77%.

As for `O=C1Nc2ccc(OC(F)(F)F)cc2C(c2ccccc2)=NC1Nc1ccc(Cl)cc1` (centres unmarked) [Compound 196], in the assay with food consumption by rats, the “Amount” value is 6,5 ± 3,2 ml and the “Food consumption, % of control” value is 88%.

As to `COC(=O)CN1C(=O)C(Nc2ccccc2[N+](=O)[O-])N=C(c2ccccc2)c2cc(OC(F)(F)F)ccc21` (centres unmarked) [Compound 227], in assay [1] (compounds Ib), the “Writhing inhibition, % of control” value is given as 60%. For the same molecule, in assay [2], the “Anxiolytic properties” value is listed as “potent anxiolytic properties” and the “Anxiolytic activity assessed” value is on record as 109.5 ± 8.3. Moreover, the “General movement activity (5 mg/kg)” value in assay [3] turned out to be 13.0 ± 1.3.

For the molecule `COC(=O)CN1C(=O)C(Nc2cccc([N+](=O)[O-])c2)N=C(c2ccccc2)c2cc(OC(F)(F)F)ccc21` (centres unmarked) [Compound 228], the “Writhing inhibition, % of control” value in assay [1] (compounds Ib) is 62%. In addition, the “Anxiolytic activity assessed” value in assay [2] amounted to 40.6 ± 3.9. In assay [3], the “General movement activity (5 mg/kg)” value was found to be 17.0 ± 2.4.

Take `O=C1Nc2ccc([N+](=O)[O-])cc2C(c2ccccc2)=NC1Nc1ccccc1Cl` (centres unmarked) [Compound 248]: in the assay with food consumption by rats, the “Reduction in appetite and food consumption compared to control” value was determined as 41%; the “Amount” value is reported as 3,1 ± 2,4 ml; the “Food consumption, % of control” value came out at 41%.

In the case of `O=C1Nc2ccc([N+](=O)[O-])cc2C(c2ccccc2)=NC1Nc1cccc(Cl)c1` (centres unmarked) [Compound 249], in the assay on food consumption by rats, the “Amount” value was 5,1 ± 2,2 ml and the “Food consumption, % of control” value is on record as 69%.

For `O=C1Nc2ccc([N+](=O)[O-])cc2C(c2ccccc2Cl)=NC1Nc1ccccc1Br` (centres unmarked) [Compound 320], in the assay on food consumption by rats, the “Amount” value is listed as 6,5 ± 3,4 ml and the “Food consumption, % of control” value came out at 88%.

Consider `O=C1Nc2ccc([N+](=O)[O-])cc2C(c2ccccc2Cl)=NC1Nc1cccc(Br)c1` (centres unmarked) [Compound 321], for which, in the assay on food consumption by rats, the “Amount” value was 6,1 ± 3,2 ml and the “Food consumption, % of control” value worked out at 82%.

As to `O=C1Nc2ccc([N+](=O)[O-])cc2C(c2ccccc2Cl)=NC1Nc1ccc(Br)cc1` (centres unmarked) [Compound 322], in the assay with food consumption by rats, the “Amount” value is listed as 7,8 ± 2,7 ml and the “Food consumption, % of control” value was 105%.

`CC(=O)c1ccccc1NC1N=C(c2ccccc2F)c2cc([N+](=O)[O-])ccc2NC1=O` (centres unmarked) [Compound 347]: in the assay on food consumption by rats, the “Amount” value is listed as 6,5 ± 2,7 ml and the “Food consumption, % of control” value worked out at 105%.

Turning to `CC(=O)c1cccc(NC2N=C(c3ccccc3F)c3cc([N+](=O)[O-])ccc3NC2=O)c1` (centres unmarked) [Compound 348], in the assay on food consumption by rats, the “Amount” value is on record as 21,4 ± 4,9 ml and the “Food consumption, % of control” value is given as 284%.

Take `CC(=O)c1ccc(NC2N=C(c3ccccc3F)c3cc([N+](=O)[O-])ccc3NC2=O)cc1` (centres unmarked) [Compound 349]: in the assay on food consumption by rats, the “Amount” value is 14 ± 1,8 ml and the “Food consumption, % of control” value is 189%.

For the molecule `O=C1Nc2ccc([N+](=O)[O-])cc2C(c2ccccc2F)=NC1Nc1ccccc1Cl` (centres unmarked) [Compound 356], in the assay with food consumption by rats, the “Reduction in appetite and food consumption compared to control” value came to 39%; the “Amount” value was 2,9 ± 2,1 ml; the “Food consumption, % of control” value is on record as 39%.

Consider `O=C1Nc2ccc([N+](=O)[O-])cc2C(c2ccccc2F)=NC1Nc1ccc(Cl)cc1` (centres unmarked) [Compound 358], for which, in the assay on food consumption by rats, the “Effect on appetite” value is on record as “hyperphagic effect”; the “Amount” value is recorded as 6,7 ± 3,2 ml; the “Food consumption, % of control” value worked out at 90%.

As for `CN1C(=O)CN=C(c2ccccc2)c2cc(Cl)ccc21` [Diazepam, reference compound], in assay [2], the “Anxiolytic activity assessed” value came to 120.0 ± 4.9. Moreover, the “General movement activity (5 mg/kg)” value in assay [3] worked out at 32.5 ± 2.8.

In assay [1], `COc1ccc2c(c1)c(CC(=O)O)c(C)n2C(=O)c1ccc(Cl)cc1` [indomethacin, reference compound] displayed an ED50 of 1.5 ± 0.26 mg/kg.

Turning to `O=C(O)Cc1ccccc1Nc1c(Cl)cccc1Cl` [sodium diclofenac, reference compound], in assay [1], it took a dose of 10 ± 1.8 mg/kg to reach the 50% effect level (ED50).

Source of the values: patent US11358939B2, “1,4-benzodiazepin-2-one derivatives and use thereof” (priority 2017, dated 2022).
